The target in this experiment is T1, recominbant human tryptase, beta, from lung (Homo sapiens, UniProt P20231).
T1 construct: purchased Promega or Enzo Life Sciences G5631 or BML-SE418
The experiment in a line: Inhibition of tryptase activity by monomers and multimers (Boc-Gln-Ala-Arg-AMC fluorescence). The class given is biochemical. The following applies: monomers against tryptase. Here is the method:
Stock solutions of recominbant human tryptase, beta, from lung (Promega: catalog number G5631, or Enzo Life Sciences: catalog number BML-SE418) were made at 30 μM, in solution with 5 μM heparin sulfate and 1 M NaCl. Monomer tryptase inhibitor stock solutions were made at 50 mM in DMSO. Test substance plates were made at 1.2× the final concentration in assay buffer (50 mM HEPES, 150 mM NaCl, 100 μM EDTA, pH 7.4, 0.02% Tween-20). A final concentration of 1 nM tryptase was used. When required, test substances were diluted in water immediately before use in 10-fold serial dilutions. After the indicated incubation time, the test subtance-tryptase solution at 1.2× concentration, was diluted into assay buffer containing a final concentration of 200 μM N-tert-butoxycarbonyl-Gln-Ala-Arg-AMC HBr [AMC=7-amino-4-methylcoumarin] (Boc-Gln-Ala-Arg-AMC; Enzo Life Sciences: catalog number BML-P237) to a final volume of 50 μl in black opaque round bottom 96 well plates (Corning, catalog number 3792). The release of fluorescent AMC was immediately measured every 30 seconds over 15-30 minutes at an excitation wavelength of 367 nm, monitoring emission at 468 nm on a Spectramax M5 (Molecular Devices) microplate reader. The Softmax Pro (Molecular Devices) and Graphpad prism software were used to determine Vmax, and concentration-response curve IC50s, respectively.

[1] abbreviates: read-out: IC50 range group of additional monomers (boronic acid, benzooxaborole, ligands).
Setting [2] is: Table 5, read-out: Monomer IC50 range.
Where [3] appears, read: entry marked (1:10), read-out: IC50 range group of additional monomers marked (1:10).

Our source for the IC50 values is patent US11970448B2, “Monomers capable of dimerizing in an aqueous solution, and methods of using same” (CORNELL UNIVERSITY, priority 2011, dated 2024).

Read-outs that look alike come from different tables or passages of the source.

T1 sequence (P20231 31-275): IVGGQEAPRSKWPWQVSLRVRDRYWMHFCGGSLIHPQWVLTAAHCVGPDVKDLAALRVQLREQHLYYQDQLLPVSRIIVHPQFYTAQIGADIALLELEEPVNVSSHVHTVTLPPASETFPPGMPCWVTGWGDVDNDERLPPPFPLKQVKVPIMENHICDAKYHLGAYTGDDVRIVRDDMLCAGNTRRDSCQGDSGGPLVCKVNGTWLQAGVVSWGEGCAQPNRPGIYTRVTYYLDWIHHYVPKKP

Usually IC50 stands for the concentration at which inhibition is half-maximal. On to `NCc1cccc(C2CCN(C(=O)Cc3ccc(B(O)O)c(F)c3)CC2)c1` [T54BA], for which, under setting [1], the IC50 lay within 1000 to 10000 nM.
Turning to `CC(C)(C)OC(=O)NCc1cccc(C2CCN(C(=O)c3cccc(NC(=O)C(=O)C(C)(C)O)c3)CC2)c1` [T55, tert-butyl 3-(1-(3-(3-hydroxy-3-methyl-2-oxobutanamido)benzoyl)piperidin-4-yl)benzylcarbamate], under setting [2], the IC50 lay in the range of 0.1 to 1000 nM.
For `CC(C)(C)OC(=O)NCc1cccc(C2CCN(C(=O)c3cccc(NC(=O)C(O)C(C)(C)O)c3)CC2)c1` (centres unmarked) [T55D, tert-butyl 3-(1-(3-(2,3-dihydroxy-3-methylbutanamido)benzoyl)piperidin-4-yl)benzylcarbamate], the IC50 under setting [2] lay in the range of 0.1 to 1000 nM and the IC50 under setting [3] is 0.1 to 1000 nM.
With `NCc1cccc(C2CCN(C(=O)c3cc4c(B(O)O)cccc4s3)CC2)c1` [T56, 2-(4-(3-(aminomethyl)phenyl)piperidine-1-carbonyl)benzo[b]thiophen-4-ylboronic acid], the concentration for half-maximal inhibition (IC50) was 0.1 to 1000 nM under setting [2] and 0.1 to 1000 nM under setting [1].
In the case of `NCc1cccc(C2CCN(C(=O)c3cc4c(Br)cccc4s3)CC2)c1` [T56A, (4-(3-(aminomethyl)phenyl)piperidin-1-yl)(4-bromobenzo[b]thiophen-2-yl)methanone], the IC50 under setting [2] is 0.1 to 1000 nM.
As to `NCc1cccc(C2CCN(C(=O)Cc3cc(B(O)O)ccc3F)CC2)c1` [T57, 3-(2-(4-(3-(aminomethyl)phenyl)piperidin-1-yl)-2-oxoethyl)-4-fluorophenylboronic acid], the IC50 is, setting by setting: under setting [2], 1000 to 10000 nM; under setting [1], 1000 to 10000 nM.
In the case of `NCc1cccc(C2CCN(C(=O)Cc3ccc(B(O)O)cc3F)CC2)c1` [T58, 4-(2-(4-(3-(aminomethyl)phenyl)piperidin-1-yl)-2-oxoethyl)-3-fluorophenylboronic acid], the IC50 under setting [2] fell in the range of 1000 to 10000 nM and the IC50 under setting [1] lay in the range of 1000 to 10000 nM.
Regarding `NCc1cccc(C2CCN(C(=O)c3cc4ccc(B(O)O)cc4[nH]3)CC2)c1` [T59, 2-(4-(3-(aminomethyl)phenyl)piperidine-1-carbonyl)-1H-indol-6-ylboronic acid], the IC50 under setting [2] lay within 1000 to 10000 nM and the IC50 under setting [1] was in the range of 1000 to 10000 nM.
As for `NCc1cccc(C2CCN(C(=O)c3ccc(O)c(CO)c3)CC2)c1` [T65, (4-(3-(aminomethyl)phenyl)piperidin-1-yl)(4-hydroxy-3-(hydroxymethyl)phenyl)methanone], the IC50 was in the range of 0.1 to 1000 nM under setting [2] and 0.1 to 1000 nM under setting [1].
`NCc1cccc(C2CCN(C(=O)c3ccc(O)c(C(N)=O)c3)CC2)c1` [T66, 5-(4-(3-(aminomethyl)phenyl)piperidine-1-carbonyl)-2-hydroxybenzamide]: the IC50 under setting [2] was 0.1 to 1000 nM and the IC50 under setting [1] fell in the range of 0.1 to 1000 nM.
Consider `CC1(O)CN(c2cccc(C(=O)N3CCC(c4cccc(CN)c4)CC3)c2)CC1(C)O` (centres unmarked) [T67, (4-(3-(aminomethyl)phenyl)piperidin-1-yl)(3-(3,4-dihydroxy-3,4-dimethylpyrrolidin-1-yl)phenyl)methanone], for which the IC50 is 0.1 to 1000 nM under setting [2] and 0.1 to 1000 nM under setting [1].
`NCc1cccc(C2CCN(C(=O)c3ccc(O)c(O)c3O)CC2)c1` [T68, (4-(3-(aminomethyl)phenyl)piperidin-1-yl)(2,3,4-trihydroxyphenyl)methanone]: the IC50 by setting is: under setting [2], 1000 to 10000 nM; under setting [1], 1000 to 10000 nM.
With `NCc1cccc(C2CCN(C(=O)c3cc(O)c(O)c(O)c3)CC2)c1` [T69, (4-(3-(aminomethyl)phenyl)piperidin-1-yl)(3,4,5-trihydroxyphenyl)methanone], the IC50 was 1000 to 10000 nM under setting [2] and 1000 to 10000 nM under setting [1].
On to `NCc1cccc(C2CCN(C(=O)c3cccc(NC(=O)c4cccc(O)c4O)c3)CC2)c1` [T70, N-(3-(4-(3-(aminomethyl)phenyl)piperidine-1-carbonyl)phenyl)-2,3-dihydroxybenzamide], for which the IC50 was in the range of 0.1 to 1000 nM under setting [2] and 0.1 to 1000 nM under setting [1].
For `NCc1cccc(C2CCN(C(=O)c3cccc(NC(=O)c4ccc(O)c(O)c4)c3)CC2)c1` [T71, N-(3-(4-(3-(aminomethyl)phenyl)piperidine-1-carbonyl)phenyl)-3,4-dihydroxybenzamide], the IC50 fell in the range of 0.1 to 1000 nM under setting [2] and 0.1 to 1000 nM under setting [1].
As to `CC(O)(COc1cccc(C(=O)N2CCC(c3cccc(CN)c3)CC2)c1)C(=O)O` (centres unmarked) [T72, 3-(3-(4-(3-(aminomethyl)phenyl)piperidine-1-carbonyl)phenoxy)-2-hydroxy-2-methylpropanoic acid], the IC50 lay in the range of 0.1 to 1000 nM under setting [2] and 0.1 to 1000 nM under setting [1].
For `NCc1cccc(C2CCN(C(=O)c3cccc(OCC(O)(C(=O)O)c4ccccc4)c3)CC2)c1` (centres unmarked) [T73, 3-(3-(4-(3-(aminomethyl)phenyl)piperidine-1-carbonyl)phenoxy)-2-hydroxy-2-phenylpropanoic acid], the half-inhibitory concentration (IC50) was 0.1 to 1000 nM under setting [2] and 0.1 to 1000 nM under setting [1].
For `NCc1cccc(C2CCN(C(=O)c3ccc(CO)c(O)c3)CC2)c1` [T74, (4-(3-(aminomethyl)phenyl)piperidin-1-yl)(3-hydroxy-4-(hydroxymethyl)phenyl)methanone], the IC50 runs as follows: under setting [2], 0.1 to 1000 nM; under setting [3], 0.1 to 1000 nM.
Take `NCc1ccc2c(c1)C1(CCN(C(=O)c3ccc(CO)c(O)c3)CC1)CO2` [T74SPIRO]: under setting [1], the IC50 was 0.1 to 1000 nM.
For `NCc1cccc(C2CCN(C(=O)c3ccc(C(N)=O)c(O)c3)CC2)c1` [T75, 4-(4-(3-(aminomethyl)phenyl)piperidine-1-carbonyl)-2-hydroxybenzamide], the IC50 under setting [2] was 1000 to 10000 nM and the IC50 under setting [1] fell in the range of 1000 to 10000 nM.
As for `CONC(=O)c1ccc(C(=O)N2CCC(c3cccc(CN)c3)CC2)cc1O` [T75A, 4-(4-(3-(aminomethyl)phenyl)piperidine-1-carbonyl)-2-hydroxy-N-methoxybenzamide], the IC50 is, setting by setting: under setting [2], 0.1 to 1000 nM; under setting [1], 0.1 to 1000 nM.
On to `CC(C)(C)ONC(=O)c1ccc(C(=O)N2CCC3(CC2)COc2ccc(CN)cc23)cc1O` [T75AOTBSPIRO], for which the IC50 under setting [1] fell in the range of 0.1 to 1000 nM.
On the same count and under the same terms, for `CC(C)(C)ONC(=O)c1ccc(C(=O)N2CCC(c3cccc(CN)c3)CC2)cc1O` [T75AOTB] the value was 1000 to 10000 nM.
Same read-out and setting: next, `NCc1ccc2c(c1)C1(CCN(C(=O)c3ccc(C(=O)NOc4ccccc4)c(O)c3)CC1)CO2` [T75APSPIRO]: 0.1 to 1000 nM.
For `NCc1cccc(C2CCN(C(=O)c3ccc(C(=O)NOc4ccccc4)c(O)c3)CC2)c1` [T75AP], the IC50 under setting [3] lay in the range of 0.1 to 1000 nM.
The same measure, in the same setting: next, `CONC(=O)c1ccc(C(=O)N2CCC3(CC2)COc2ccc(CN)cc23)cc1O` [T75ASPIRO]: 0.1 to 1000 nM.
On to `NCc1cccc(C2CCN(C(=O)/C=C/c3ccc(C(N)=O)c(O)c3)CC2)c1` [T76, (E)-4-(3-(4-(3-(aminomethyl)phenyl)piperidin-1-yl)-3-oxoprop-1-enyl)-2-hydroxybenzamide], for which the IC50 under setting [2] is 0.1 to 1000 nM and the IC50 under setting [1] was 0.1 to 1000 nM.
For the molecule `CONC(=O)c1ccc(/C=C/C(=O)N2CCC(c3cccc(CN)c3)CC2)cc1O` [T76A, (E)-4-(3-(4-(3-(aminomethyl)phenyl)piperidin-1-yl)-3-oxoprop-1-enyl)-2-hydroxy-N-methoxybenzamide], the IC50 by setting is: under setting [2], 0.1 to 1000 nM; under setting [1], 0.1 to 1000 nM.
Take `NCc1cccc(C2CCN(C(=O)c3cc(O)c(O)cc3O)CC2)c1` [T77, (4-(3-(aminomethyl)phenyl)piperidin-1-yl)(2,4,5-trihydroxyphenyl)methanone]: the IC50 reads like this: under setting [2], 10000 to 65000 nM; under setting [1], 10000 to 65000 nM.
In the case of `NCc1cccc(C2CCN(C(=O)c3cc(O)c(O)c(Cl)c3)CC2)c1` [T78, (4-(3-(aminomethyl)phenyl)piperidin-1-yl)(3-chloro-4,5-dihydroxyphenyl)methanone], the IC50 runs as follows: under setting [2], 0.1 to 1000 nM; under setting [1], 0.1 to 1000 nM.
On to `NCc1ccc2c(c1)C1(CCN(C(=O)c3cc(O)c(O)c(Cl)c3)CC1)CO2` [T78SPIRO, (5-(aminomethyl)-2H-spiro[benzofuran-3,4′-piperidine]-1′-yl)(3-chloro-4,5-dihydroxyphenyl)methanone], for which the IC50 by setting is: under setting [2], 0.1 to 1000 nM; under setting [1], 0.1 to 1000 nM.
In the case of `CC(O)(Cn1ccc2cc(C(=O)N3CCC(c4cccc(CN)c4)CC3)ccc21)C(=O)O` (centres unmarked) [T81, 3-(5-(4-(3-(aminomethyl)phenyl)piperidine-1-carbonyl)-1H-indol-1-yl)-2-hydroxy-2-methylpropanoic acid], the IC50 was 0.1 to 1000 nM under setting [2] and 0.1 to 1000 nM under setting [3].
On to `CC(O)(Cn1ccc2ccc(C(=O)N3CCC(c4cccc(CN)c4)CC3)cc21)C(=O)O` (centres unmarked) [T82, 3-(6-(4-(3-(aminomethyl)phenyl)piperidine-1-carbonyl)-1H-indol-1-yl)-2-hydroxy-2-methylpropanoic acid], for which the IC50 by setting is: under setting [2], 0.1 to 1000 nM; under setting [3], 0.1 to 1000 nM.
Take `NCc1cccc(C2CCN(C(=O)c3ccc4c(ccn4CC(O)(C(=O)O)c4ccccc4)c3)CC2)c1` (centres unmarked) [T83, 3-(5-(4-(3-(aminomethyl)phenyl)piperidine-1-carbonyl)-1H-indol-1-yl)-2-hydroxy-2-phenylpropanoic acid]: the IC50 is, setting by setting: under setting [2], 0.1 to 1000 nM; under setting [3], 0.1 to 1000 nM.
